# Tests used:
# Assay in all cases: relative viability (nuclei count vs DMSO), 5 days (fraction); higher = more cells survive
# [1] = compound: C1CC(C1)(C(=O)O)C(=O)O.[NH2-].[NH2-].[Pt+2] [Carboplatin] + CCNC(=O)c1noc(-c2cc(C(C)C)c(O)cc2O)c1-c1ccc(CN2CCOCC2)cc1 [Luminespib] (partner 0.01 µM)
# How it was run: (§1)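 Lung cancer cell lines, seeded in 1536-well plates, were treated the following day by pin tool with a single drug or with five library-drug doses (not always all listed) in √10 steps on top of a fixed anchor-drug dose. Cells were fixed and nuclei stained in one step after 5 days, and nuclei were counted. Relative viability is the nuclei count for treated wells divided by that for vehicle wells, reported as medians of duplicate plates.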
# [2] = compound: CC[C@H](C)N1C=C(C2=C(C=C(C=C21)C3=CN=C(C=C3)N4CCNCC4)C(=O)NCC5=C(C=C(NC5=O)C)C)C [GSK126] + NC(=O)Nc1cc(-c2cccc(F)c2)sc1C(=O)N[C@H]1CCCNC1 [AZD7762] (partner 0.2 µM)
# How it was run: as §1
# [3] = compound: CC[C@H](C)N1C=C(C2=C(C=C(C=C21)C3=CN=C(C=C3)N4CCNCC4)C(=O)NCC5=C(C=C(NC5=O)C)C)C [GSK126] + N=C(N)NC(=N)NCCc1ccccc1 [Phenformin] (partner 250 µM)
# How it was run: as §1
# [4] = compound: CC[C@H](C)N1C=C(C2=C(C=C(C=C21)C3=CN=C(C=C3)N4CCNCC4)C(=O)NCC5=C(C=C(NC5=O)C)C)C [GSK126] + Cc1cc(Nc2cc(N3CCN(C)CC3)nc(Sc3ccc(NC(=O)C4CC4)cc3)n2)n[nH]1 [Tozasertib] (partner 0.1 µM)
# How it was run: as §1
Cell Line,relative viability ([1]; first compound 0.08 µM),relative viability ([1]; first compound 0.253 µM),relative viability ([1]; first compound 0.8 µM),relative viability ([1]; first compound 2.53 µM),relative viability ([1]; first compound 8 µM),relative viability ([2]; first compound 0.08 µM),relative viability ([2]; first compound 0.253 µM),relative viability ([2]; first compound 0.8 µM),relative viability ([2]; first compound 2.53 µM),relative viability ([2]; first compound 8 µM),relative viability ([3]; first compound 0.08 µM),relative viability ([3]; first compound 0.253 µM),relative viability ([3]; first compound 0.8 µM),relative viability ([3]; first compound 2.53 µM),relative viability ([3]; first compound 8 µM),relative viability ([4]; first compound 0.08 µM),relative viability ([4]; first compound 0.253 µM),relative viability ([4]; first compound 0.8 µM),relative viability ([4]; first compound 2.53 µM),relative viability ([4]; first compound 8 µM)
LOU-NH91,0.393,0.337,0.329,0.306,0.34,0.789,0.737,0.714,0.822,0.727,0.785,0.755,0.692,0.662,0.639,0.741,0.66,0.661,0.685,0.631
LU99A,0.29,0.319,0.247,0.188,0.211,0.37,0.254,0.338,0.346,0.392,1.09,0.881,0.94,0.93,0.855,0.259,0.268,0.26,0.198,0.21
LXF-289,0.79,0.787,0.601,0.677,0.568,1.16,1.11,0.956,1.1,1.09,0.549,0.509,0.477,0.487,0.483,0.162,0.149,0.218,0.176,0.181
NCI-H23,0.194,0.237,0.208,0.173,0.233,0.248,0.214,0.208,0.29,0.205,0.843,0.792,0.738,0.761,0.77,0.374,0.374,0.354,0.624,0.266
NCI-H322M,1.09,0.749,0.752,0.633,0.61,0.538,0.531,0.536,0.647,0.53,0.826,0.787,0.849,0.875,0.817,0.501,0.51,0.49,0.472,0.499
NCI-H358,0.359,0.77,0.259,0.409,0.222,0.552,0.471,0.482,0.768,0.476,0.465,0.306,0.379,0.402,0.299,0.105,0.116,0.133,0.12,0.122
NCI-H441,0.387,0.28,0.266,0.295,0.234,1.29,0.965,1.03,1.1,1.08,0.991,0.727,0.708,0.946,0.826,0.68,0.571,0.567,0.545,0.461
NCI-H460,0.0398,0.0303,0.0396,0.0341,0.0233,0.616,0.5,0.594,0.538,0.546,0.587,0.531,0.523,0.483,0.468,0.419,0.33,0.574,0.352,0.103
NCI-H522,1.05,1.38,0.851,0.904,0.835,0.849,0.888,0.904,0.93,0.964,0.62,0.671,0.662,0.743,0.601,0.535,0.507,0.503,0.527,0.605
NCI-H596,1.02,1,0.4,0.342,0.746,1.12,0.904,1.2,1.12,0.988,0.913,0.761,0.751,0.948,0.829,0.933,1.03,0.894,0.89,0.933
NCI-H647,0.169,0.239,0.154,0.185,0.13,0.465,0.495,0.497,0.507,0.371,0.595,0.45,0.448,0.344,0.508,0.375,0.268,0.288,0.282,0.126
NCI-H650,0.757,0.904,0.655,0.548,0.327,0.946,1.11,0.964,1.01,1.16,0.431,0.464,0.445,0.437,0.472,0.783,0.744,0.702,0.691,0.717
NCI-H727,0.377,0.3,0.432,0.24,0.312,0.683,0.619,0.539,0.64,0.458,0.469,0.622,0.587,0.624,0.533,0.633,0.648,0.586,0.676,0.438
NCI-H838,0.284,0.291,0.195,0.192,0.188,1.1,0.932,0.873,0.916,0.857,0.652,0.468,0.522,0.487,0.555,0.293,0.269,0.255,0.261,0.242
NCI-H1355,0.826,0.814,0.765,0.588,0.537,0.814,0.658,0.688,0.746,0.479,0.524,0.448,0.434,0.454,0.391,0.573,0.495,0.546,0.533,0.378
NCI-H1395,0.864,0.543,0.731,0.458,0.331,0.392,0.381,0.399,0.399,0.342,0.487,0.446,0.43,0.506,0.474,0.787,0.763,0.831,0.683,0.669

# — the supplement of paper PMC10307832
